Consider four compounds from patent US20230295215A1, “NOVEL MRNA 5'-END CAP ANALOGS MODIFIED WITHIN PHOSPHATE RESIDUES, RNA MOLECULE INCORPORATING THE SAME, USES THEREOF AND METHOD OF SYNTHESIZING RNA MOLECULE OR PEPTIDE” (Uniwersytet Warszawski, priority 2020, published 2023).

The conditions of assay [1]: cited from earlier work; for translation efficiency: relative to the compound without modification.
For another assay, the system named is 3T3-L1 and JAWS II cells. In words: Gaussia luciferase protein expression from capped mRNA transfected into mammalian cells. It counts as cell-based, murine. Particulars: mRNAs modified with the two trinucleotide cap analogs compared with each other. The method, then:
Transcripts incorporating at the 5′ end compounds according to the invention or benchmark (reference) compounds were obtained using in vitro transcription method in the presence of RNA polymerase T7 and DNA template containing the […] promoter sequence for this polymerase. In order to analyze the capping efficiency, short RNA transcripts were obtained as described in Example 9. The transcription yielding RNAs of 35 nt in length was carried out in the presence of selected compounds according to the invention or reference compounds representing state of the art and containing the same modifications of phosphate groups as the analyzed compounds according to the invention. The resulting RNAs were treated with DNAzyme 10-23 in order to shorten them and reduce 3′ end heterogeneity and analyzed in 15% polyacrylamide gel, which enabled separation of capped and uncapped RNAs. In order to analyze protein expression yield in mammalian cells, mRNAs carrying compounds according to the invention or reference compounds and encoding Gaussia luciferase as a reporter gene were obtained. […] The obtained mRNAs were introduced into mammalian cell lines (fibroblasts—3T3-L1 and dendritic cells—JAWS II) using transfection with lipofectamine, followed by measuring Gaussia luciferase expression in the extracellular medium at appropriate time intervals by the luminescence method as described in Example 13. […]

For the compound m2^7,3′-OGppCH2pG, the protein expression entry in assay [1] (compared to mRNA obtained with m2^7,3′-OGpppG (no O by CH2 substitution)) is on record as “significant reduction in protein expression”. Also, in assay [1], the translation efficiency entry is “decreases”.

For `COC1C(O)C(COP(=O)(O)OP(=O)(S)OP(=O)(O)OCC2OC(n3cnc4c(=O)[nH]c(N)nc43)C(O)C2O)OC1n1c[n+](C)c2c(=O)[nH]c(N)nc21` (centres unmarked) [m2^7,2′-OGppspG D2], in assay [1], the translation efficiency result was “increases”.

Take m^7GppCH2pAmpG: the translational properties entry with 3T3-L1 and JAWS II cells was “very similar translational properties”.

For `CO[C@@H]1[C@H](O)[C@@H](COP(=O)(O)OP(=O)([S-])OP(=O)(O)OC[C@H]2O[C@@H](n3cnc4c(=O)[nH]c(N)nc43)[C@H](O)[C@@H]2O)O[C@H]1n1c[n+](C)c2c(O)nc(N)nc21` (stereo partly drawn) [β-S-ARCA], in assay [1] (in vitro and in vivo), the “translation efficiency of mRNA” value is listed as “significant increase in translation efficiency”.
